Reference: paper PMC9032516, “Targeting Zika Virus with New Brain- and Placenta-Crossing Peptide–Porphyrin Conjugates” (Pharmaceutics, 2022)
Structures can show the parent of a compound that is named as a salt. Where two headings read alike, the source gives them in different places. Each block holds one compound with its values, some of them ahead of it. No end group written: not given here.

Legend:
[1] = system: HBEC-5i human brain endothelia monolayer (in vitro BBB model); assay: In vitro BBB integrity assay (FD4 permeability after incubation); type: cell-based
Method: After 24 h incubation with PPCs, cells were washed with PBS and DMEM:F12 medium without phenol red. […] Three independent replicates were performed.

Serum stability = type: in vitro ADME; conditions: human serum diluted 1:1 (v/v) with HEPES buffer, 0.05 mM in 1:1 human serum / HEPES buffer (10 mM, NaCl 150 mM, pH 7.8), 37 °C, methanol precipitation, three independent replicates, read-out: t1/2 in human serum (converted)
HIV = system: HIV; design: method as in 2 sources, one per row (each row's own in cited_ref): ref [24] as printed in Table 2, ref [2] in supplement ||| ref 23 = [23]; PMID 34033716; doi:10.1021/acs.bioconjchem.1c00123; 23. Mendonça D.A. Bakker M. Cruz-Oliveira C. Neves V. Jiménez M.A. Defaus S. Cavaco M. Veiga A.S. Cadima-Couto I. Castanho M.A.R.B. Penetrating the Blood-Brain Barrier with New Peptide–Porphyrin Conju; conditions: in vitro; values marked a; ref [24] as printed in Table 2, ref [2] in supplement; cited from earlier work
ZIKV^BR = assay: ZIKV inactivation assay (plaque assay on Vero cells); type: cell-based, Zika virus; conditions: 10^5 PFU ZIKV^BR pre-treated 1 h at 37 °C in the dark with 0.01–50 µM, titrated by plaque assay on Vero cells, three independent replicates
Method: After infection, cells were cultured for 7 days.
Three independent replicates were performed.

FD4 permeability post-translocation (Basolateral Content), BBB [1]: 29.6%
Compound: O=C(O)CN(CCOCCOCCN(CC(=O)O)CC(=O)O)CC(=O)O [EGTA]

Compound: SGTQEEY-NH2 [P5, SGTQEEY-amide]
half-life at 0.05 mM (Serum stability; over 24 h, HPLC peak area (401 nm for porphyrins)): 2.2 h

Compound: VQQLTKRFSL-NH2 [P1]
half-life at 0.05 mM (Serum stability; HPLC): 0.733 h

FD4 permeability post-translocation (Basolateral Content), BBB ([1]; HBEC-5i monolayer after 24 h incubation with 10 µM compound, 4 kDa FITC-dextran apical, 2 h, fluorescence, three independent replicates, black bars Figure 1B, control (cells only) 10.3%): 24.7%
increase in FD4 permeability over control values, BBB ([1]; HBEC-5i monolayer, 24.7% versus control 10.3%): 2.5 fold
Compound: C=CC1=C(C)c2cc3[nH]c(cc4nc(cc5[nH]c(cc1n2)c(C)c5CCC(=O)O)C(CCC(=O)O)=C4C)c(C)c3C=C [PP, protoporphyrin IX]
IC50 (HIV): > 50 µM

IC50 (ZIKV^BR): > 50 µM
Compound: CCC1=C(C)c2cc3[nH]c(cc4[nH]c(cc5nc(cc1n2)C(C)=C5CC)c(C)c4CCC(=O)O)c(CCC(=O)O)c3C [MP, Mesoporphyrin IX dihydrochloride]
IC50 (HIV): > 50 µM
